Source: US9133158B2, “Bicyclic dihydroisoquinoline-1-one derivatives” (Hoffmann-La Roche Inc., priority 2011, dated 2015)

Experiments:
[1] = target: T1, human CYP11B2 (Homo sapiens, UniProt P19099); experiment: G-402 cellular enzyme assay, human CYP11B2 (aldosterone release, HTRF); format: cell-based; conditions: G-402 cells, 1 μM Deoxycorticosterone
T1 construct: expressed in transfected cells
T1 sequence (P19099 25-503): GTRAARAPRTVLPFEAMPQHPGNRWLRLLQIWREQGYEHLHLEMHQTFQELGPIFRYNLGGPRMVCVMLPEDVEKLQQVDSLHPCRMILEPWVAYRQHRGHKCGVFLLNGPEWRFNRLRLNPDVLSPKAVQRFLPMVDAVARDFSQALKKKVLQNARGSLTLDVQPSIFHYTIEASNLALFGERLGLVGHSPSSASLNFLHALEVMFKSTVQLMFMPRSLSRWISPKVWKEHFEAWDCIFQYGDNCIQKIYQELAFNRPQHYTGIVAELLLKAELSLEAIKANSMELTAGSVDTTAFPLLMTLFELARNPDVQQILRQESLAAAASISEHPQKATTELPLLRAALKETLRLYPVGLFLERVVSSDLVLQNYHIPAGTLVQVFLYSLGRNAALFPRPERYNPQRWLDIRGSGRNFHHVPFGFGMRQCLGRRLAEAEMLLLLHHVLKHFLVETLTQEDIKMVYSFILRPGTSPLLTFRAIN
In short: (§1)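 G-402 cells stably expressing human CYP11B1 or CYP11B2, in DMEM/F12 with 2.5% charcoal-treated FCS, were incubated 16 h with test compound and substrate (1 μM 11-deoxycortisol for CYP11B1; 1 μM deoxycorticosterone for CYP11B2). Cortisol or aldosterone in supernatant was quantified by HTRF; EC50 from 4-parameter MMF fit.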

[2] = target: T2, human CYP11B1 (Homo sapiens, UniProt P15538); experiment: G-402 cellular enzyme assay, human CYP11B1 (cortisol release, HTRF); format: cell-based; conditions: G-402 cells, 1 μM Deoxycortisol
T2 construct: expressed in transfected cells
T2 sequence (P15538 25-503): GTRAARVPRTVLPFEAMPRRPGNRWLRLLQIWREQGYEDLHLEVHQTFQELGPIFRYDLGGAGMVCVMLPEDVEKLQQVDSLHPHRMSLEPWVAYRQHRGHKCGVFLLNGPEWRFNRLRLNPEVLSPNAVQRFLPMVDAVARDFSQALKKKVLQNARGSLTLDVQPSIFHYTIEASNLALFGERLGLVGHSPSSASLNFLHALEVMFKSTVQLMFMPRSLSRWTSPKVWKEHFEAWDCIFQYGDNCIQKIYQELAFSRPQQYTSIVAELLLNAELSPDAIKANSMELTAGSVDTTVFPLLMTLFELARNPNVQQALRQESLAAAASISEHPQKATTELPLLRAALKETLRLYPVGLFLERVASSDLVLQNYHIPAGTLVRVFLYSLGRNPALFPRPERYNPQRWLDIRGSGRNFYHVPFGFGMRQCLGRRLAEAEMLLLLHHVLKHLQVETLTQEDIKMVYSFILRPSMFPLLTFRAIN
In short: as §1

## CC(C)N1CCN(Cc2cncc(N3C(=O)c4ccc(Cl)cc4C3(C)C)c2)C1=O [Example 416, 5-Chloro-2-[5-(3-isopropyl-2-oxo-imidazolidin-1-ylmethyl)-pyridin-3-yl]-3,3-dimethyl-2,3-dihydro-isoindol-1-one]
[1]
  EC50: 6 nM
[2]
  EC50: 723 nM

## Cc1c(-c2cncc(N3CCc4cc(Cl)ccc4C3=O)c2)ncn1C [Example 417, 6-Chloro-2-[5-(1,5-dimethyl-1H-imidazol-4-yl)-pyridin-3-yl]-3,4-dihydro-2H-isoquinolin-1-one]
[1]
  EC50: 224 nM
[2]
  EC50: 9090 nM

## Cn1nccc1-c1cncc(N2C(=O)c3ccc(Cl)cc3C2(C)C)c1 [Example 418, 5-Chloro-3,3-dimethyl-2-[5-(2-methyl-2H-pyrazol-3-yl)-pyridin-3-yl]-2,3-dihydro-isoindol-1-one]
[1]
  EC50: 4 nM
[2]
  EC50: 62 nM

## Cc1n[nH]cc1-c1cncc(N2CCc3cc(Cl)ccc3C2=O)c1 [Example 419, 6-Chloro-2-[5-(3-methyl-1H-pyrazol-4-yl)-pyridin-3-yl]-3,4-dihydro-2H-isoquinolin-1-one]
[1]
  EC50: 9.1 nM
[2]
  EC50: 122 nM

## Cc1cn[nH]c1-c1cncc(N2CCc3cc(Cl)ccc3C2=O)c1 [Example 420, 6-Chloro-2-[5-(4-methyl-2H-pyrazol-3-yl)-pyridin-3-yl]-3,4-dihydro-2H-isoquinolin-1-one]
[1]
  EC50: 27.4 nM
[2]
  EC50: 281 nM

## Cn1ncc(Cl)c1-c1cncc(N2CCc3cc(Cl)ccc3C2=O)c1 [Example 421, 6-Chloro-2-[5-(4-chloro-2-methyl-2H-pyrazol-3-yl)-pyridin-3-yl]-3,4-dihydro-2H-isoquinolin-1-one]
[1]
  EC50: 0.7 nM
[2]
  EC50: 32.4 nM

## Cc1cc(-c2cncc(N3CCc4cc(Cl)ccc4C3=O)c2)n(C)n1 [Example 422, 6-Chloro-2-[5-(2,5-dimethyl-2H-pyrazol-3-yl)-pyridin-3-yl]-3,4-dihydro-2H-isoquinolin-1-one]
[1]
  EC50: 154 nM
[2]
  EC50: 11100 nM

## Cc1c(-c2cncc(N3CCc4cc(Cl)ccc4C3=O)c2)cnn1C [Example 423, 6-Chloro-2-[5-(1,5-dimethyl-1H-pyrazol-4-yl)-pyridin-3-yl]-3,4-dihydro-2H-isoquinolin-1-one]
[1]
  EC50: 63.7 nM
[2]
  EC50: 1020 nM

## Cn1nccc1-c1cncc(N2CCc3cc(Cl)ccc3C2=O)c1Cl [Example 424, 6-Chloro-2-[4-chloro-5-(2-methyl-2H-pyrazol-3-yl)-pyridin-3-yl]-3,4-dihydro-2H-isoquinolin-1-one]
[1]
  EC50: 6.2 nM
[2]
  EC50: 140 nM

## Cn1nccc1-c1cncc(N2C(=O)c3ccc(Cl)nc3C2(C)C)c1 [Example 425, 2-Chloro-7,7-dimethyl-6-[5-(2-methyl-2H-pyrazol-3-yl)-pyridin-3-yl]-6,7-dihydro-pyrrolo[3,4-b]pyridin-5-one]
[1]
  EC50: 56.2 nM
[2]
  EC50: 1270 nM

## COc1ccc2c(n1)C(C)(C)N(c1cncc(-c3ccnn3C)c1)C2=O [Example 426, 2-Methoxy-7,7-dimethyl-6-[5-(2-methyl-2H-pyrazol-3-yl)-pyridin-3-yl]-6,7-dihydro-pyrrolo[3,4-b]pyridin-5-one]
[1]
  EC50: 12.1 nM
[2]
  EC50: 572 nM

## Cn1ncc(Cl)c1-c1cncc(N2C(=O)c3ccc(Cl)cc3C2(C)C)c1 [Example 427, 5-Chloro-2-[5-(4-chloro-2-methyl-2H-pyrazol-3-yl)-pyridin-3-yl]-3,3-dimethyl-2,3-dihydro-isoindol-1-one]
[1]
  EC50: 2.4 nM
[2]
  EC50: 47.2 nM

## Cc1cccnc1C(=O)NCc1cncc(N2C(=O)c3ccc(Cl)cc3C2(C)C)c1 [Example 430, 3-Methyl-pyridine-2-carboxylic acid [5-(6-chloro-1,1-dimethyl-3-oxo-1,3-dihydro-isoindol-2-yl)-pyridin-3-ylmethyl]-amide]
[1]
  EC50: 6.9 nM
[2]
  EC50: 737 nM

## CC1(C)c2cc(Cl)ccc2C(=O)N1c1cncc(CNC(=O)c2ncccc2Cl)c1 [Example 431, 3-Chloro-pyridine-2-carboxylic acid [5-(6-chloro-1,1-dimethyl-3-oxo-1,3-dihydro-isoindol-2-yl)-pyridin-3-ylmethyl]-amide]
[1]
  EC50: 44.4 nM
[2]
  EC50: 912 nM

## Cn1ccnc1C(=O)NCc1cncc(N2C(=O)c3ccc(Cl)cc3C2(C)C)c1 [Example 432, 1-Methyl-1H-imidazole-2-carboxylic acid [5-(6-chloro-1,1-dimethyl-3-oxo-1,3-dihydro-isoindol-2-yl)-pyridin-3-ylmethyl]-amide]
[1]
  EC50: 22.2 nM
[2]
  EC50: 1450 nM

## CC1(C)c2cc(Cl)ccc2C(=O)N1c1cncc(CNC(=O)c2cccnc2Cl)c1 [Example 433, 2-Chloro-N-[5-(6-chloro-1,1-dimethyl-3-oxo-1,3-dihydro-isoindol-2-yl)-pyridin-3-ylmethyl]-nicotinamide]
[1]
  EC50: 14.3 nM
[2]
  EC50: 1310 nM

## CC1(C)c2cc(Cl)ccc2C(=O)N1c1cncc(CNC(=O)c2ccccn2)c1 [Example 434, Pyridine-2-carboxylic acid [5-(6-chloro-1,1-dimethyl-3-oxo-1,3-dihydro-isoindol-2-yl)-pyridin-3-ylmethyl]-amide]
[1]
  EC50: 6.6 nM
[2]
  EC50: 228 nM

## Cn1cncc1C(=O)NCc1cncc(N2C(=O)c3ccc(Cl)cc3C2(C)C)c1 [Example 435, 3-Methyl-3H-imidazole-4-carboxylic acid [5-(6-chloro-1,1-dimethyl-3-oxo-1,3-dihydro-isoindol-2-yl)-pyridin-3-ylmethyl]-amide]
[1]
  EC50: 8.8 nM
[2]
  EC50: 256 nM

## Cc1ccc(C(=O)NCc2cncc(N3C(=O)c4ccc(Cl)cc4C3(C)C)c2)cn1 [Example 436, N-[5-(6-Chloro-1,1-dimethyl-3-oxo-1,3-dihydro-isoindol-2-yl)-pyridin-3-ylmethyl]-6-methyl-nicotinamide]
[1]
  EC50: 5.8 nM
[2]
  EC50: 158 nM

## CC1(C)c2cc(Cl)ccc2C(=O)N1c1cncc(CNC(=O)c2ccncc2Cl)c1 [Example 437, 3-Chloro-N-[5-(6-chloro-1,1-dimethyl-3-oxo-1,3-dihydro-isoindol-2-yl)-pyridin-3-ylmethyl]-isonicotinamide]
[1]
  EC50: 77.6 nM
[2]
  EC50: 1640 nM

## CC1(C)c2cc(Cl)ccc2C(=O)N1c1cncc(CNC(=O)c2cccnc2)c1 [Example 438, N-[5-(6-Chloro-1,1-dimethyl-3-oxo-1,3-dihydro-isoindol-2-yl)-pyridin-3-ylmethyl]-nicotinamide]
[1]
  EC50: 3.8 nM
[2]
  EC50: 202 nM

## Cc1ncccc1C(=O)NCc1cncc(N2C(=O)c3ccc(Cl)cc3C2(C)C)c1 [Example 439, N-[5-(6-Chloro-1,1-dimethyl-3-oxo-1,3-dihydro-isoindol-2-yl)-pyridin-3-ylmethyl]-2-methyl-nicotinamide]
[1]
  EC50: 119 nM
[2]
  EC50: 6900 nM

## Cc1ccncc1C(=O)NCc1cncc(N2C(=O)c3ccc(Cl)cc3C2(C)C)c1 [Example 440, N-[5-(6-Chloro-1,1-dimethyl-3-oxo-1,3-dihydro-isoindol-2-yl)-pyridin-3-ylmethyl]-4-methyl-nicotinamide]
[1]
  EC50: 17.6 nM
[2]
  EC50: 1270 nM

## CC(=O)N1CCC(Oc2cncc(N3C(=O)c4ccc(Cl)cc4C3(C)C)c2)C1 (centres unmarked) [Example 441, 2-[5-(1-Acetyl-pyrrolidin-3-yloxy)-pyridin-3-yl]-5-chloro-3,3-dimethyl-2,3-dihydro-isoindol-1-one]
[1]
  EC50: 16.6 nM
[2]
  EC50: 988 nM

## CC(=O)N1CC[C@@H](Oc2cncc(N3C(=O)c4ccc(Cl)cc4C3(C)C)c2)C1 [Example 442, 2-[5-((R)-1-Acetyl-pyrrolidin-3-yloxy)-pyridin-3-yl]-5-chloro-3,3-dimethyl-2,3-dihydro-isoindol-1-one]
[1]
  EC50: 5.6 nM
[2]
  EC50: 427 nM

## CC(=O)N1CC[C@H](Oc2cncc(N3C(=O)c4ccc(Cl)cc4C3(C)C)c2)C1 [Example 443, 2-[5-((S)-1-Acetyl-pyrrolidin-3-yloxy)-pyridin-3-yl]-5-chloro-3,3-dimethyl-2,3-dihydro-isoindol-1-one]
[1]
  EC50: 9 nM
[2]
  EC50: 1170 nM

## CCC(=O)N1CCC(Oc2cncc(N3C(=O)c4ccc(Cl)cc4C3(C)C)c2)C1 (centres unmarked) [Example 444, 5-Chloro-3,3-dimethyl-2-[5-(1-propionyl-pyrrolidin-3-yloxy)-pyridin-3-yl]-2,3-dihydro-isoindol-1-one]
[1]
  EC50: 8.4 nM
[2]
  EC50: 514 nM

## CC1(C)c2cc(Cl)ccc2C(=O)N1c1cncc(OC2CCN(S(C)(=O)=O)C2)c1 (centres unmarked) [Example 445, 5-Chloro-2-[5-(1-methanesulfonyl-pyrrolidin-3-yloxy) -pyridin-3-yl]-3,3-dimethyl-2,3-dihydro-isoindol-1-one]
[1]
  EC50: 7.4 nM
[2]
  EC50: 914 nM
